In patent US10208077B1, “Aesculin lipoic acid ester with antioxidant activity and a method of preparing the same” (SHAANXI UNIVERSITY OF SCIENCE AND TECHNOLOGY, priority 2018, dated 2019):

Assay: DPPH radical scavenging activity assay
Format: biochemical
Conditions: for Scavenging activity (%): 0.2 mmol/L DPPH, 30 min, room temperature, dark, absorbance at 517 nm
Excerpt: The Antioxidant Activity of the Aesculin Lipoic Acid Ester Measured by a DPPH Radical Scavenging Activity Assay
2,2-Diphenyl-1-picryl hydrazyl (DPPH) is an organic compound composed of a stable organic radical. In the DPPH molecule, due to the presence of multiple electron-withdrawing —NO2 and large π bonds of the benzene ring, nitrogen free radical is stabilized. Its methanol solution is purple and has a maximum absorption peak at 517 nm. After the addition of an antioxidant, DPPH captures an electron to be paired with the free electron, and the purple fades and turns into a yellow substance. The absorption at 517 nm disappears, and the degree of fading is quantitatively related to the number of electrons it captures. Based on this principle, a spectrophotometer is used to detect the change of the absorbance of the DPPH radical and the sample solution, and the ability of the sample to provide hydrogen atoms and scavenge free radicals can be measured.
Preparation of DPPH solution: measuring exact amount of 2,2-diphenyl-1-picryl hydrazyl (DPPH) and dissolving in methanol to prepare a 0.2 mmol/L DPPH solution, stored at 0° C. in dark.
Preparation of sample solutions: the aesculin lipoic acid ester was diluted with a concentration gradient of 1.82, 7.28, 24.2, 48.4, 72.6, 96.8, 242, 484, 726, 968 ppm with acetonitrile to prepare sample solutions to be tested. Control samples (vitamin C, aesculin, lipoic acid, a mixture of aesculin and lipoic acid) were diluted with methanol in the same manner in the same concentration gradient to obtain the corresponding four groups of control solutions.
Measuring the Scavenging Activity of the Sample Solutions:
2 mL of the sample solutions at each concentration gradient was taken, 2 mL 0.2 mmol/L DPPH solution was added, the mixture was mixed and reacted at room temperature in dark for 30 minutes, and methanol was then added to adjust final volume. The absorbance Ai was measured at 517 nm. 2 mL control solution and 2 mL methanol were mixed, and the absorbance Aj was measured. 2 mL DPPH solution and 2 mL methanol were mixed, and the absorbance A0 was measured. The scavenging activity of the sample solution and control solutions is calculated according to the following calculation formula. Scavenging activity (%)=100×[1−(Ai−Aj)/A0]

Row | SMILES | Scavenging activity (%) (1.82 ppm) | Scavenging activity (%) (7.28 ppm) | Scavenging activity (%) (24.2 ppm) | Scavenging activity (%) (48.4 ppm) | Scavenging activity (%) (72.6 ppm) | Scavenging activity (%) (96.8 ppm) | Scavenging activity (%) (242 ppm) | Scavenging activity (%) (484 ppm) | Scavenging activity (%) (726 ppm) | Scavenging activity (%) (968 ppm) | free radical clearance rate (achieved at a lower concentration than aesculin, lipoic acid and their mixture)
1 | O=c1ccc2cc(O[C@@H]3O[C@H](CO)[C@@H](O)[C@H](O)[C@H]3O)c(O)cc2o1 [Aesculin] | 3.44 | 3.53 | 5.12 | 5.56 | 8.12 | 10.77 | 24.01 | 42.54 | 58.34 | 70.70 | 
2 | O=C1O[C@H]([C@@H](O)CO)C(O)=C1O [Vitamin C, vitamin C] | 23.86 | 72.45 | 96.70 | 96.99 | 97.58 | 97.77 | 97.77 | 98.06 | 98.06 | 98.06 | 
3 | O=C(CCCC[C@@H]1CCSS1)OCC1OC(Oc2cc3ccc(=O)oc3cc2O)C(O)C(O)C1O (some centres unmarked) [Aesculin lipoic acid ester, aesculin lipoic acid ester] | 30.93 | 42.73 | 57.70 | 72.90 | 83.5 | 89.73 | 95.30 | 96.50 | 96.83 | 96.94 | more than 90%
4 | O=C(O)CCCC[C@@H]1CCSS1 (racemic) [Lipoic acid] | 0.86 | 1.14 | 1.43 | 1.62 | 2.47 | 3.81 | 8.47 | 16.65 | 20.17 | 21.88 | 
